The test concerns Utrophin A promoter linked to a luciferase reporter gene (H2K/mdx/Utro A reporter cell line). Kind of test: Luciferase reporter assay (murine H2K cells). The settings on record: for Activity: luciferase level relative to control, final concentration of 10 μM; for activity at 10 µM: Mus musculus, H2K mdx. (In general: Reporter assays use an easily measured gene product as a stand-in for the process of interest.)

The structures appear in SMILES notation.

In the case of `O=C(O)c1cccc(-c2ccc3oc(-c4ccc(Cl)cc4)nc3c2)c1` [Example 313, 3-(2-(4-chlorophenyl)benzo[d]oxazol-5-yl)benzoic acidd], the Activity entry (Table 1) was “+ (Up to 200% relative to control)”. For the molecule `Clc1ccc(-c2nc3cc4c(cc3o2)OCO4)cc1Cl` [Example 361, 2-(3,4-chlorophenyl)-5,6-methylenedioxybenzoxazole], the Activity result (Table 1) was “+ (Up to 200% relative to control)”.

Take `CCN(CC)S(=O)(=O)c1ccc2oc(-c3ccc(Cl)cc3)nc2c1` [Example 439, 2-(4′-chlorophenyl)-5-(N,N-diethylsulfonamidyl)-benzoxazole]: the Activity result (Table 1) is on record as “+ (Up to 200% relative to control)”. Still for that read-out and setting: the entry for `CC(=O)c1ccc2oc(-c3ccc(Cl)c(Cl)c3)nc2c1` [Example 453, 1-(2′-(3″,4″-Dichlorophenyl)benzo[d]oxazol-5′-yl)ethanone] is “++++ (Above 401% relative to control)”. As for `Clc1ccc(SCc2ccc(-c3nc4ccccc4[nH]3)cc2)cc1` [Example 460, 2-(4-((4-chlorophenylthio)methyl)phenyl)-1H-benzo[d]imidazole], the activity at 10 µM is less than 200%. Consider `Clc1ccc(OCc2nc3ccccc3[nH]2)c(Cl)c1` [Example 461, 2-((2,4-dichlorophenoxy)methyl)-1H-benzo[d]imidazole], for which the activity at 10 µM was in the range of 301 to 400%.

Regarding `Cc1ccc2sc(NC(=O)NC(=O)c3c(Cl)cccc3Cl)nc2c1` [Example 462, 2,6-dichloro-N-(5-methylbenzo[d]thiazol-2-ylcarbamoyl)benzamide], the activity at 10 µM was less than 200%. The same measure, in the same setting: the figure for `c1csc(-c2nc3ccccc3[nH]2)c1` [Example 463, 2-(thiophen-2-yl)-1H-benzo[d]imidazole] is less than 200%. For the molecule `O=C(Nc1cccc(-c2nc3ccccc3[nH]2)c1)c1ccccc1` [Example 464, N-(3-(1H-benzo[d]imidazol-2-yl)phenyl)benzamide], the activity at 10 µM was less than 200%. In the case of `Clc1ccc(OCc2nc3ccccc3n2Cc2ccccc2Cl)c(Cl)c1` [Example 465, 1-(2-chlorobenzyl)-2-((2,4-dichlorophenoxy)methyl)-1H-benzo[d]imidazole], the activity at 10 µM is less than 200%. In the case of `Cc1nc2ccc(NC(=O)Nc3ccccc3)cc2o1` [Example 466, 1-(2-methylbenzo[d]oxazol-6-yl)-3-phenylurea], the activity at 10 µM was less than 200%. For `CNC(=O)Nc1ccc2nc(C)oc2c1` [Example 467, 1-methyl-3-(2-methylbenzo[d]oxazol-6-yl)urea], the activity at 10 µM was less than 200%. For `Cc1nc2ccc(NC(=O)NC(=O)c3ccccc3Cl)cc2o1` [Example 468, 2-chloro-N-(2-methylbenzo[d]oxazol-6-ylcarbamoyl)benzamide], the activity at 10 µM is less than 200%. For the molecule `Clc1ccc(-c2nc3cc(CN4CCCCC4)ccc3o2)cc1` [Example 469, 2-(4-chlorophenyl)-5-(piperidin-1-ylmethyl)benzo[d]oxazole], the activity at 10 µM was less than 200%.

Take `COc1ccc(-c2nc3ccccc3[nH]2)cc1` [Example 470, 2-(4-methoxyphenyl)-1H-benzo[d]imidazole]: the activity at 10 µM is 201 to 300%. With `c1ccc(OCc2nc3ccccc3[nH]2)cc1` [Example 471, 2-(phenoxymethyl)-1H-benzo[d]imidazole], the activity at 10 µM lay within 201 to 300%. In the case of `Cn1c(-c2ccc([N+](=O)[O-])cc2)nc2ccccc21` [Example 472, 1-methyl-2-(4-nitrophenyl)-1H-benzo[d]imidazole], the activity at 10 µM is less than 200%.

Turning to `COc1ccc(OCc2nc3ccccc3[nH]2)cc1` [Example 473, 2-((4-methoxyphenoxy)methyl)-1H-benzo[d]imidazole], the Activity entry (Table 2) was “++ (Between 201% and 300% relative to control)”.

As to `Cn1c(COc2ccccc2)nc2ccccc21` [Example 474, 1-methyl-2-(phenoxymethyl)-1H-benzo[d]imidazole], the activity at 10 µM is less than 200%. Turning to `Nc1ccc(-c2nc3ccccc3[nH]2)cc1` [Example 475, 4-(1H-benzo[d]imidazol-2-yl)aniline], the activity at 10 µM was less than 200%.

For `Nc1ccc2nc(-c3ccc(-c4nc5ccc(N)cc5[nH]4)cc3)[nH]c2c1` [Example 476, 2,2′-(1,4-phenylene)bis(1H-benzo[d]imidazol-6-amine)], the activity at 10 µM is less than 200%.

In the case of `O=[N+]([O-])c1ccc(-c2nc3ccccc3o2)cc1` [Example 477, 2-(4-nitrophenyl)benzo[d]oxazole], the activity at 10 µM was less than 200%. The same measure, in the same setting: under `Nc1ccc(-c2nc3ccccc3o2)cc1` [Example 478, 4-(benzo[d]oxazol-2-yl)aniline] stands 201 to 300%.

As to `Cc1ccc(-c2nc3ccccc3s2)cc1N` [Example 479, 5-(benzo[d]thiazol-2-yl)-2-methylaniline], the activity at 10 µM was 201 to 300%. With `Nc1ccc2oc(-c3ccc(Cl)c(Cl)c3)nc2c1` [Example 480, 2-(3,4-dichlorophenyl)benzo[d]oxazol-5-amine], the activity at 10 µM was 201 to 300%. For the molecule `CCc1ccc(-c2nc3cc(N)ccc3o2)cc1` [Example 481, 2-(4-ethylphenyl)benzo[d]oxazol-5-amine], the activity at 10 µM was in the range of 201 to 300%. On the same count and under the same terms, under `Cc1cc(C)cc(-c2nc3cc(N)ccc3o2)c1` [Example 482, 2-(3,5-dimethylphenyl)benzo[d]oxazol-5-amine] stands less than 200%; under `Oc1ccccc1-c1nc2ccccc2s1` [Example 483, 2-(benzo[d]thiazol-2-yl)phenol], less than 200%. Regarding `Nc1ccc(-c2nc3ccccc3o2)c(O)c1` [Example 484, 5-amino-2-(benzo[d]oxazol-2-yl)phenol], the activity at 10 µM was in the range of 201 to 300%. For the molecule `Cc1cc2nc(-c3ccc(N)cc3)oc2cc1C` [Example 485, 4-(5,6-dimethylbenzo[d]oxazol-2-yl)aniline], the activity at 10 µM was in the range of 201 to 300%. On to `CN(C)c1ccc(-c2nc3ccccc3o2)cc1` [Example 486, 4-(benzo[d]oxazol-2-yl)-N,N-dimethylaniline], for which the activity at 10 µM was less than 200%. Same read-out and setting: under `Nc1ccc2oc(-c3ccc(Cl)cc3)nc2c1` [Example 488, 2-(4-chlorophenyl)benzo[d]oxazol-5-amine] stands 201 to 300%.

For `Nc1ccc2oc(-c3cccc(Cl)c3)nc2c1` [Example 489, 2-(3-chlorophenyl)benzo[d]oxazol-5-amine], the activity at 10 µM lay in the range of 201 to 300%. With `Cn1c(-c2ccc(N)cc2)nc2cc(N)ccc21` [Example 490, 2-(4-aminophenyl)-1-methyl-1H-benzo[d]imidazol-5-amine], the activity at 10 µM was less than 200%. For `CN(C)c1ccc(-c2nc3cc(N)ccc3o2)cc1` [Example 491, 2-(4-(dimethylamino)phenyl)benzo[d]oxazol-5-amine], the activity at 10 µM fell in the range of 201 to 300%. On to `O=[N+]([O-])c1ccc2oc(-c3ccccc3)nc2c1` [Example 492, 5-nitro-2-phenylbenzo[d]oxazole], for which the activity at 10 µM was 201 to 300%.

Take `O=C(Cc1cccs1)Nc1ccc(-c2nc3ccccc3[nH]2)cc1` [Example 493, N-(4-(1H-benzo[d]imidazol-2-yl)phenyl)-2-(thiophen-2-yl)acetamide]: the activity at 10 µM was less than 200%. `COc1ccc(C(=O)Nc2ccc(-c3nc4ccccc4[nH]3)cc2)cc1OC` [Example 494, N-(4-(1H-benzo[d]imidazol-2-yl)phenyl)-3,4-dimethoxybenzamide]: the activity at 10 µM was less than 200%.

Source of the values: patent publication US8518980B2, “Treatment of Duchenne muscular dystrophy” (Summit Corporation PLC, priority 2006, dated 2013).
